What was measured:
HLA A2.1 = target: T1, HLA A2.1 (UniProt P01901+P04439, D140Y/D185E/D98H/E176V/G131W/I119V/I121R/I166T/N151K/N90K/Q86G/Q94H/R138H/R169H); test: Competition assay: inhibition of influenza matrix peptide M1 (58-66) binding to A2.1, read as inhibition of lysis by an M1-specific CTL clone; set-up: species or system human; details: test peptide 10 μg vs influenza matrix peptide 0.1 μg; T2-A2.1/K^b target cells
T1 construct: expressed in transfected cells; host or cells: T2-A2.1/K^b cells
Procedure: Briefly, each test peptide (10 μg) was incubated with radiolabeled target cells (T2-A2.1/K^b, 10^6 target cells labeled with […] ^51Cr at 37° for 1.5 hours) in the presence of an influenza virus matrix protein (0.1 μg). The ability of these peptides to inhibit the binding of the influenza matrix protein peptide MI (58-66) to A2.1 was measured by inhibition of lysis by an M1 (58-66) specific, A2.1 restricted CTL clone.

LG-2 = test: Lysis of tumor cells by peptide-specific CTL; type: cell-based, human; details: 6 hours; for Killing of tumor (lysis): LG-2, EBV-trans., A2 +, Her-2 −, no cytokine preincubation; for Killing of tumor (lysis) + CYT: LG-2, tumor preincubated 24 hours with 20 ng/ml γ-IFN and 3 ng/ml TNF-α
ST486 = test: Lysis of tumor cells by peptide-specific CTL; type: cell-based, human; details: 6 hours; for Killing of tumor (lysis): ST486, lymphoma, A2 +, Her-2 −, no cytokine preincubation; for Killing of tumor (lysis) + CYT: ST486, tumor preincubated 24 hours with 20 ng/ml γ-IFN and 3 ng/ml TNF-α
MDA.MB231 = test: Lysis of tumor cells by peptide-specific CTL; type: cell-based, human; details: 6 hours; for Killing of tumor (lysis): MDA.MB231, breast, A2 +, Her-2 +, no cytokine preincubation; for Killing of tumor (lysis) + CYT: MDA.MB231, tumor preincubated 24 hours with 20 ng/ml γ-IFN and 3 ng/ml TNF-α
SW480 = test: Lysis of tumor cells by peptide-specific CTL; type: cell-based, human; details: 6 hours; for Killing of tumor (lysis): SW480, colon, A2 +, Her-2 +, no cytokine preincubation; for Killing of tumor (lysis) + CYT: SW480, tumor preincubated 24 hours with 20 ng/ml γ-IFN and 3 ng/ml TNF-α
OVCAR-5 = test: Lysis of tumor cells by peptide-specific CTL; type: cell-based, human; details: 6 hours; for Killing of tumor (lysis): OVCAR-5, ovarian, A2 +, Her-2 +, no cytokine preincubation; for Killing of tumor (lysis) + CYT: OVCAR-5, tumor preincubated 24 hours with 20 ng/ml γ-IFN and 3 ng/ml TNF-α
JY = test: Lysis of tumor cells by peptide-specific CTL; type: cell-based, human; details: 6 hours; for Killing of tumor (lysis) + CYT: tumor preincubated 24 hours with 20 ng/ml γ-IFN and 3 ng/ml TNF-α; for Killing of tumor (lysis): lymphoma, A2 +, Her-2 −, no cytokine preincubation
T98G = test: Lysis of tumor cells by peptide-specific CTL; type: cell-based, human; details: 6 hours; for Killing of tumor (lysis) + CYT: tumor preincubated 24 hours with 20 ng/ml γ-IFN and 3 ng/ml TNF-α; for Killing of tumor (lysis): glioblastoma, A2 +, Her-2 +, no cytokine preincubation
NCl.H1355 = test: Lysis of tumor cells by peptide-specific CTL; type: cell-based, human; details: 6 hours; for Killing of tumor (lysis): NCl.H1355, lung, A2 +, Her-2 +, no cytokine preincubation; for Killing of tumor (lysis) + CYT: NCl.H1355, tumor preincubated 24 hours with 20 ng/ml γ-IFN and 3 ng/ml TNF-α
CASKI = test: Lysis of tumor cells by peptide-specific CTL; type: cell-based, human; details: 6 hours; for Killing of tumor (lysis) + CYT: tumor preincubated 24 hours with 20 ng/ml γ-IFN and 3 ng/ml TNF-α; for Killing of tumor (lysis): cervix, A2 +, Her-2 +, no cytokine preincubation
BT549 = test: Lysis of tumor cells by peptide-specific CTL; type: cell-based, human; details: 6 hours; for Killing of tumor (lysis): BT549, breast, A2 +, Her-2 +, no cytokine preincubation; for Killing of tumor (lysis) + CYT: BT549, tumor preincubated 24 hours with 20 ng/ml γ-IFN and 3 ng/ml TNF-α
U2-OS = test: Lysis of tumor cells by peptide-specific CTL; type: cell-based, human; details: 6 hours; for Killing of tumor (lysis) + CYT: tumor preincubated 24 hours with 20 ng/ml γ-IFN and 3 ng/ml TNF-α; for Killing of tumor (lysis): osteosarcoma, A2 +, Her-2 +, no cytokine preincubation
SAOS.175 = test: Lysis of tumor cells by peptide-specific CTL; type: cell-based, human; details: 6 hours; for Killing of tumor (lysis): SAOS.175, osteosarcoma, A2 +, Her-2 +, no cytokine preincubation; for Killing of tumor (lysis) + CYT: SAOS.175, tumor preincubated 24 hours with 20 ng/ml γ-IFN and 3 ng/ml TNF-α
MCF-7 = test: Lysis of tumor cells by peptide-specific CTL; type: cell-based, human; details: 6 hours; for Killing of tumor (lysis): MCF-7, breast, A2 +, Her-2 +, no cytokine preincubation; for Killing of tumor (lysis) + CYT: MCF-7, tumor preincubated 24 hours with 20 ng/ml γ-IFN and 3 ng/ml TNF-α
U87G = test: Lysis of tumor cells by peptide-specific CTL; type: cell-based, human; details: 6 hours; for Killing of tumor (lysis) + CYT: tumor preincubated 24 hours with 20 ng/ml γ-IFN and 3 ng/ml TNF-α; for Killing of tumor (lysis): glioblastoma, A2 +, Her-2 −, no cytokine preincubation
MDA.MB435 = test: Lysis of tumor cells by peptide-specific CTL; type: cell-based, human; details: 6 hours; for Killing of tumor (lysis): MDA.MB435, breast, A2 −, Her-2 +, no cytokine preincubation; for Killing of tumor (lysis) + CYT: MDA.MB435, tumor preincubated 24 hours with 20 ng/ml γ-IFN and 3 ng/ml TNF-α
SKMEL-5 = test: Lysis of tumor cells by peptide-specific CTL; type: cell-based, human; details: 6 hours; for Killing of tumor (lysis): SKMEL-5, melanoma, A2 +, Her-2 +, no cytokine preincubation; for Killing of tumor (lysis) + CYT: SKMEL-5, tumor preincubated 24 hours with 20 ng/ml γ-IFN and 3 ng/ml TNF-α
SV80 = test: Lysis of tumor cells by peptide-specific CTL; type: cell-based, human; details: 6 hours; for Killing of tumor (lysis): SV80, fibroblast, A2 +, Her-2 −, no cytokine preincubation; for Killing of tumor (lysis) + CYT: SV80, tumor preincubated 24 hours with 20 ng/ml γ-IFN and 3 ng/ml TNF-α
MALME-3M = test: Lysis of tumor cells by peptide-specific CTL; type: cell-based, human; details: 6 hours; for Killing of tumor (lysis) + CYT: tumor preincubated 24 hours with 20 ng/ml γ-IFN and 3 ng/ml TNF-α; for Killing of tumor (lysis): melanoma, A2 +, Her-2 +, no cytokine preincubation
Hep-G2 = test: Lysis of tumor cells by peptide-specific CTL; type: cell-based, human; details: 6 hours; for Killing of tumor (lysis): Hep-G2, hepatoma, A2 +, Her-2 +, no cytokine preincubation; for Killing of tumor (lysis) + CYT: Hep-G2, tumor preincubated 24 hours with 20 ng/ml γ-IFN and 3 ng/ml TNF-α

## DIDETEYHA [H18, Her-2/neu peptide 871-879]
HLA A2.1
  % INHIBITION: 37%

## DLLEKGERL [H19, Her-2/neu peptide 933-941]
HLA A2.1
  % INHIBITION: 36%

## DLVDAEEYL [H23, Her-2/neu peptide 1016-1024]
HLA A2.1
  % INHIBITION: 35%

## ELVSEFSRM [H20, Her-2/neu peptide 971-979]
HLA A2.1
  % INHIBITION: 5%

## ELVSEFSRMA [H21, Her-2/neu peptide 971-980]
HLA A2.1
  % INHIBITION: 25%

## HLYQGOQW [H12]
HLA A2.1
  % INHIBITION: 15%

## KIPVAIKVL [H14, Her-2/neu peptide 747-755]
HLA A2.1
  % INHIBITION: 35%

## KLVGKLNWA [HIV-9K, HIV POL peptide, known to be immunogenic, used as a control, reference compound]
LG-2
  Killing of tumor (lysis): 1%
  Killing of tumor (lysis) + CYT: 1
ST486
  Killing of tumor (lysis): 1%
  Killing of tumor (lysis) + CYT: 1
MDA.MB231
  Killing of tumor (lysis): 3%
  Killing of tumor (lysis) + CYT: 14
SW480
  Killing of tumor (lysis): 1%
  Killing of tumor (lysis) + CYT: 4
OVCAR-5
  Killing of tumor (lysis): 10%
  Killing of tumor (lysis) + CYT: 12
JY
  Killing of tumor (lysis) + CYT: 1
  Killing of tumor (lysis): 2%
T98G
  Killing of tumor (lysis) + CYT: 13
  Killing of tumor (lysis): 9%
NCl.H1355
  Killing of tumor (lysis): 7%
  Killing of tumor (lysis) + CYT: 25
CASKI
  Killing of tumor (lysis) + CYT: 11
  Killing of tumor (lysis): 8%
BT549
  Killing of tumor (lysis): 2%
  Killing of tumor (lysis) + CYT: 15
U2-OS
  Killing of tumor (lysis) + CYT: 24
  Killing of tumor (lysis): 18%
SAOS.175
  Killing of tumor (lysis): 18%
  Killing of tumor (lysis) + CYT: 11
MCF-7
  Killing of tumor (lysis): 3%
  Killing of tumor (lysis) + CYT: 7
U87G
  Killing of tumor (lysis) + CYT: 1
  Killing of tumor (lysis): 5%
MDA.MB435
  Killing of tumor (lysis): 4%
  Killing of tumor (lysis) + CYT: 3
SKMEL-5
  Killing of tumor (lysis): 5%
  Killing of tumor (lysis) + CYT: 4
SV80
  Killing of tumor (lysis): 2%
  Killing of tumor (lysis) + CYT: 2
MALME-3M
  Killing of tumor (lysis) + CYT: 1
  Killing of tumor (lysis): 2%
Hep-G2
  Killing of tumor (lysis): 1%
  Killing of tumor (lysis) + CYT: 8

## LVSEFSRMA [H22, Her-2/neu peptide 972-980]
HLA A2.1
  % INHIBITION: 14%

## QLMPYGCLL [H16, Her-2/neu peptide 799-807]
HLA A2.1
  % INHIBITION: 50%

## RLLQETELV [H13]
HLA A2.1
  % INHIBITION: 56%

## TLQGLGISWL [H6, Her-2/neu peptide 444-453]
HLA A2.1
  % INHIBITION: 56%

## TLSPGKNGV [H24, Her-2/neu peptide 1172-1180]
HLA A2.1
  % INHIBITION: 57%

## VLQGLPREYV [H8, Her-2/neu peptide 546-555]
HLA A2.1
  % INHIBITION: 43%

## VLVKSPNHV [H17, Her-2/neu peptide 851-859]
HLA A2.1
  % INHIBITION: 12%

## VMAGVGSPYV [H7]
LG-2
  Killing of tumor (lysis): 1%
  Killing of tumor (lysis) + CYT: 3
ST486
  Killing of tumor (lysis): 5%
  Killing of tumor (lysis) + CYT: 8
MDA.MB231
  Killing of tumor (lysis): 26%
  Killing of tumor (lysis) + CYT: 89
SW480
  Killing of tumor (lysis): 2%
  Killing of tumor (lysis) + CYT: 17
OVCAR-5
  Killing of tumor (lysis): 13%
  Killing of tumor (lysis) + CYT: 23
HLA A2.1
  % INHIBITION: 55%
JY
  Killing of tumor (lysis) + CYT: 2
  Killing of tumor (lysis): 4%
T98G
  Killing of tumor (lysis) + CYT: 93
  Killing of tumor (lysis): 29%
NCl.H1355
  Killing of tumor (lysis): 13%
  Killing of tumor (lysis) + CYT: 62
CASKI
  Killing of tumor (lysis) + CYT: 20
  Killing of tumor (lysis): 9%
BT549
  Killing of tumor (lysis): 2%
  Killing of tumor (lysis) + CYT: 36
U2-OS
  Killing of tumor (lysis) + CYT: 62
  Killing of tumor (lysis): 30%
SAOS.175
  Killing of tumor (lysis): 27%
  Killing of tumor (lysis) + CYT: 35
MCF-7
  Killing of tumor (lysis): 7%
  Killing of tumor (lysis) + CYT: 40
U87G
  Killing of tumor (lysis) + CYT: 1
  Killing of tumor (lysis): 1%
MDA.MB435
  Killing of tumor (lysis): 1%
  Killing of tumor (lysis) + CYT: 1
SKMEL-5
  Killing of tumor (lysis): 16%
  Killing of tumor (lysis) + CYT: 40
SV80
  Killing of tumor (lysis): 2%
  Killing of tumor (lysis) + CYT: 2
MALME-3M
  Killing of tumor (lysis) + CYT: 14
  Killing of tumor (lysis): 4%
Hep-G2
  Killing of tumor (lysis): 4%
  Killing of tumor (lysis) + CYT: 29

Reference: US20010007152A1, “RECOMBINANT CONSTRUCTS ENCODING T CELL RECEPTORS SPECIFIC FOR HUMAN HLA-RESTRICTED TUMOR ANTIGENS” (priority 1996, published 2001)
